Results: patent US20070117743A1, “New antitumoral compounds” (priority 2003, published 2007)

Tests used:
Format in all cases: cell-based, human
A-549 = assay: SRB colorimetric assay of cell growth and viability, A-549; conditions: 48 hours exposure, SRB; for GI50: read-out: GI50 A-549; for CC50: read-out: LC50 A-549
SK-MEL-28 = assay: SRB colorimetric assay of cell growth and viability, SK-MEL-28; conditions: 48 hours exposure, SRB; for CC50: read-out: LC50 MEL-28
HT-29 = assay: SRB colorimetric assay of cell growth and viability, HT-29; conditions: 48 hours exposure, SRB; for GI50: read-out: GI50 HT-29; for CC50: read-out: LC50 HT-29
LoVo = assay: SRB colorimetric assay of cell growth and viability, LoVo; conditions: 48 hours exposure, SRB; for CC50: read-out: LC50 LOVO
LoVo-Dox = assay: SRB colorimetric assay of cell growth and viability, LoVo-Dox; conditions: 48 hours exposure, SRB; for CC50: read-out: LC50 LOVO-DOX
Procedure, shortened: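 48 h continuous exposure, 10 to 10^−8 μg/mL; 5×10^3 cells/well, 18 h attachment; TCA fix, 0.4% SRB, OD 490 nm. Triplicates; GI, TGI, LC derived.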

DU-145 = assay: SRB colorimetric assay of cell growth and viability, DU-145; conditions: 48 hours exposure, SRB
LNCaP = assay: SRB colorimetric assay of cell growth and viability, LNCaP; conditions: 48 hours exposure, SRB; for GI50: read-out: GI50 LN-caP; for CC50: read-out: LC50 LN-caP
SK-BR-3 = assay: SRB colorimetric assay of cell growth and viability, SK-BR-3; conditions: 48 hours exposure, SRB
IGROV-1 = assay: SRB colorimetric assay of cell growth and viability, IGROV-1; conditions: 48 hours exposure, SRB
IGROV-ET = assay: SRB colorimetric assay of cell growth and viability, IGROV-ET; conditions: 48 hours exposure, SRB; for CC50: read-out: LC50 IGROV-ET
HeLa = assay: SRB colorimetric assay of cell growth and viability, HeLa; conditions: 48 hours exposure, SRB; for CC50: read-out: LC50 HELA
HeLa-APL = assay: SRB colorimetric assay of cell growth and viability, HeLa-APL; conditions: 48 hours exposure, SRB; for CC50: read-out: LC50 HELA-APL
PANC-1 = assay: SRB colorimetric assay of cell growth and viability, PANC-1; conditions: 48 hours exposure, SRB; for CC50: read-out: LC50 PANC-1

Structure (SMILES) | TGI A-549 (A-549) | GI50 (A-549) | CC50 (A-549) | GI50 (SK-MEL-28) | TGI MEL-28 (SK-MEL-28) | CC50 (SK-MEL-28) | TGI HT-29 (HT-29) | GI50 (HT-29) | CC50 (HT-29) | GI50 (LoVo) | TGI LOVO (LoVo) | CC50 (LoVo) | GI50 (LoVo-Dox) | TGI LOVO-DOX (LoVo-Dox) | CC50 (LoVo-Dox) | GI50 (DU-145) | LC50 (concentration causing 50% net cell kill) (DU-145) | TGI DU-145 (DU-145) | TGI LN-caP (LNCaP) | GI50 (LNCaP) | also measured
C/C=C1\NC(=O)[C@H](Cc2c(F)c(F)c(F)c(F)c2F)NC(=O)[C@@H](C(C)C)NC(=O)[C@@H]([C@@H](C)CC)NC(=O)[C@H](NC(=O)[C@H](NC(=O)[C@H](CCCN)NC(=O)[C@H]2CCCN2C(=O)[C@H](NC(=O)[C@@H](NC(=O)[C@@H](NC(=O)[C@H](NC(=O)CC[C@@H](C)CC)C(C)C)[C@@H](C)O)C(C)C)C(C)C)[C@@H](C)CC)[C@@H](C)OC(=O)[C@H](C(C)C)NC1=O [Compound 71, [Phe(F5)^3, (4S)-MeHex^14]-KF] | 2.62E−06 Molar | 1750 nM | 3920 nM | 1520 nM | 2.40E−06 Molar | 3800 nM | 9.82E−07 Molar | 330 nM | 267 nM | 166 nM | 2.77E−07 Molar | 462 nM | 184 nM | 2.90E−07 Molar | 456 nM | 1220 nM | 3640 nM | 2.11E−06 Molar | 1.12E−06 Molar | 394 nM | CC50 (LNCaP): 2700 nM; GI50 (SK-BR-3): 228 nM; LC50 (SK-BR-3): 554 nM; TGI SK-BR-3 (SK-BR-3): 3.56E−07 Molar; GI50 (IGROV-1): 526 nM; LC50 (concentration causing 50% net cell killing) (IGROV-1): 2720 nM; TGI IGROV (IGROV-1): 1.21E−06 Molar; GI50 (IGROV-ET): 443 nM; TGI IGROV-ET (IGROV-ET): 5.35E−07 Molar; CC50 (IGROV-ET): 848 nM; GI50 (HeLa): 836 nM; TGI HELA (HeLa): 1.63E−06 Molar; CC50 (HeLa): 3160 nM; GI50 (HeLa-APL): 1330 nM; TGI HELA-APL (HeLa-APL): 2.22E−06 Molar; CC50 (HeLa-APL): 3700 nM; GI50 (PANC-1): 1560 nM; TGI PANC-1 (PANC-1): 4.41E−06 Molar; CC50 (PANC-1): 6380 nM
C/C=C1\NC(=O)[C@H](Cc2ccc(I)cc2)NC(=O)[C@@H](C(C)C)NC(=O)[C@@H]([C@@H](C)CC)NC(=O)[C@H](NC(=O)[C@H](NC(=O)[C@H](CCCN)NC(=O)[C@H]2CCCN2C(=O)[C@H](NC(=O)[C@@H](NC(=O)[C@@H](NC(=O)[C@H](NC(=O)CC[C@@H](C)CC)C(C)C)[C@@H](C)O)C(C)C)C(C)C)[C@@H](C)CC)[C@@H](C)OC(=O)[C@H](C(C)C)NC1=O [Compound 72, [Phe(4-I)^3, (4S)-MeHex^14]-KF] | 3.47E−07 Molar | 214 nM | 559 nM | 190 nM | 4.05E−07 Molar | 1200 nM | 2.30E−07 Molar | 120 nM | 441 nM | 129 nM | 2.35E−07 Molar | 428 nM | 49.8 nM | 1.23E−07 Molar | 274 nM | 132 nM | 425 nM | 2.37E−07 Molar | 8.42E−07 Molar | 270 nM | CC50 (LNCaP): 2380 nM; GI50 (SK-BR-3): 125 nM; LC50 (SK-BR-3): 416 nM; TGI SK-BR-3 (SK-BR-3): 2.28E−07 Molar; GI50 (IGROV-1): 170 nM; LC50 (concentration causing 50% net cell killing) (IGROV-1): 443 nM; TGI IGROV (IGROV-1): 2.74E−07 Molar; GI50 (IGROV-ET): 259 nM; TGI IGROV-ET (IGROV-ET): 3.84E−07 Molar; CC50 (IGROV-ET): 570 nM; GI50 (HeLa): 133 nM; TGI HELA (HeLa): 2.24E−07 Molar; CC50 (HeLa): 379 nM; GI50 (HeLa-APL): 287 nM; TGI HELA-APL (HeLa-APL): 7.73E−07 Molar; CC50 (HeLa-APL): 2280 nM; GI50 (PANC-1): 885 nM; TGI PANC-1 (PANC-1): 1.68E−06 Molar; CC50 (PANC-1): 3200 nM
C/C=C1\NC(=O)[C@H](Cc2ccc([N+](=O)[O-])cc2)NC(=O)[C@@H](C(C)C)NC(=O)[C@@H]([C@@H](C)CC)NC(=O)[C@H](NC(=O)[C@H](NC(=O)[C@H](CCCN)NC(=O)[C@H]2CCCN2C(=O)[C@H](NC(=O)[C@@H](NC(=O)[C@@H](NC(=O)[C@H](NC(=O)CC[C@@H](C)CC)C(C)C)[C@@H](C)O)C(C)C)C(C)C)[C@@H](C)CC)[C@@H](C)OC(=O)[C@H](C(C)C)NC1=O [Compound 73, [Phe(4-NO2)^3, (4S)-MeHex^14]-KF] | 1.24E−06 Molar | 532 nM | 2760 nM | 223 nM | 4.71E−07 Molar | 1480 nM | 2.32E−07 Molar | 127 nM | 426 nM | 112 nM | 2.04E−07 Molar | 372 nM | 33.5 nM | 9.46E−08 Molar | 255 nM | 233 nM | 2040 nM | 6.57E−07 Molar | 8.41E−07 Molar | 377 nM | CC50 (LNCaP): 2320 nM; GI50 (SK-BR-3): 150 nM; LC50 (SK-BR-3): 574 nM; TGI SK-BR-3 (SK-BR-3): 2.94E−07 Molar; GI50 (IGROV-1): 173 nM; LC50 (concentration causing 50% net cell killing) (IGROV-1): 488 nM; TGI IGROV (IGROV-1): 2.90E−07 Molar; GI50 (IGROV-ET): 229 nM; TGI IGROV-ET (IGROV-ET): 3.26E−07 Molar; CC50 (IGROV-ET): 467 nM; GI50 (HeLa): 173 nM; TGI HELA (HeLa): 2.80E−07 Molar; CC50 (HeLa): 450 nM; GI50 (HeLa-APL): 521 nM; TGI HELA-APL (HeLa-APL): 1.30E−06 Molar; CC50 (HeLa-APL): 2950 nM; GI50 (PANC-1): 952 nM; TGI PANC-1 (PANC-1): 1.85E−06 Molar; CC50 (PANC-1): 3580 nM
C/C=C1\NC(=O)[C@H](Cc2ccc(F)cc2)NC(=O)[C@@H](C(C)C)NC(=O)[C@@H]([C@@H](C)CC)NC(=O)[C@H](NC(=O)[C@H](NC(=O)[C@H](CCCN)NC(=O)[C@H]2CCCN2C(=O)[C@H](NC(=O)[C@@H](NC(=O)[C@@H](NC(=O)[C@H](NC(=O)CC[C@@H](C)CC)C(C)C)[C@@H](C)O)C(C)C)C(C)C)[C@@H](C)CC)[C@@H](C)OC(=O)[C@H](C(C)C)NC1=O [Compound 74, [Phe(4-F)^3, (4S)-MeHex^14]-KF] | 1.76E−06 Molar | 956 nM | 3230 nM | 829 nM | 1.64E−06 Molar | 3230 nM | 2.61E−07 Molar | 137 nM | 499 nM | 139 nM | 2.35E−07 Molar | 395 nM | 153 nM | 3.09E−07 Molar | 624 nM | 796 nM | 3250 nM | 1.61E−06 Molar | 1.02E−06 Molar | 402 nM | CC50 (LNCaP): 2590 nM; GI50 (SK-BR-3): 213 nM; LC50 (SK-BR-3): 495 nM; TGI SK-BR-3 (SK-BR-3): 3.24E−07 Molar; GI50 (IGROV-1): 206 nM; LC50 (concentration causing 50% net cell killing) (IGROV-1): 943 nM; TGI IGROV (IGROV-1): 3.88E−07 Molar; GI50 (IGROV-ET): 212 nM; TGI IGROV-ET (IGROV-ET): 3.18E−07 Molar; CC50 (IGROV-ET): 477 nM; GI50 (HeLa): 214 nM; TGI HELA (HeLa): 3.78E−07 Molar; GI50 (HeLa-APL): 675 nM; TGI HELA-APL (HeLa-APL): 1.46E−06 Molar; CC50 (HeLa-APL): 3150 nM; GI50 (PANC-1): 1080 nM; TGI PANC-1 (PANC-1): 1.98E−06 Molar; CC50 (PANC-1): 3600 nM
